24 compounds from US5624923A, “Tricyclic diazepine vasopressin antagonists and oxytocin antagonists” (priority 1995, dated 1997) can be followed below.

Assay [1] has as its target T1, Rat Kidney Medullary V2 Receptors (Rattus norvegicus, UniProt Q00788).
T1 construct: Medullary tissues from rat kidneys are dissected out; from tissue; host or cells: rat kidney medulla membranes
In words: Binding Assay to Rat Kidney Medullary V2 Receptors. The following applies: for pIC50: rat kidney medulla membranes, read-out: V2 IC50; for inhibition at 10 µM: rat. The essentials: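 Membranes were prepared from rat kidney medulla and stored in 50.0 mM Tris-HCl pH 7.4 with 0.2% BSA and 0.1 mM PMSF. Radioligand competition ran 120 min at bench temperature, with 1.0 μM unlabeled ligand defining nonspecific binding. Compounds were added in 50% DMSO; filtration, tritium scintillation counting, IC50 from competition analysis.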

Another assay concerns Vasopressin V2. In words: Vasopressin V2 Antagonist Activity in Conscious Hydrated Rats. The format is in vivo, rat. The conditions noted are these: AVP 0.4 μg/kg i.p. In a few lines: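 Four-hour urine output, osmolality and electrolytes (Na+, K+, Cl−) recorded in water-loaded rats (30 mL/kg deionized water orally) given AVP i.p. at 0.4 μg/kg. Test compounds were given orally at 0.1–100 mg/kg 1 h before AVP; 2–4 rats per compound.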

pIC50: −log10 of the molar value.

T1 sequence (Q00788 whole entry): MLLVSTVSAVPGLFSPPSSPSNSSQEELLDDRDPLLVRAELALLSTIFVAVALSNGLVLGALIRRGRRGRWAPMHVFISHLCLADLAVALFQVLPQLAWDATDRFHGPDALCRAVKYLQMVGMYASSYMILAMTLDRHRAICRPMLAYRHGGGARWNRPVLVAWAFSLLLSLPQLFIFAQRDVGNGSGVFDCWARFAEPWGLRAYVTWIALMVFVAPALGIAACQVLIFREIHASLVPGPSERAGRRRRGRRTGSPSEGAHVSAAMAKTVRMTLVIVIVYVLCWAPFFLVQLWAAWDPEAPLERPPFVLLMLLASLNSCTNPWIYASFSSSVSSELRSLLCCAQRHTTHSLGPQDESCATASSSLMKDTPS

In the case of `O=C(Nc1ccc(C(=O)N2Cc3cccn3Cc3ccccc32)cc1)C(O)c1ccccc1` (racemic) [Example 588, (±) α-Hydroxy-N-[4-(5H-pyrrolo[2,1c][1,4]benzodiazepin-10(11H)-ylcarbonyl)phenyl]benzeneacetamide], the negative-log IC50 (pIC50) (usually the IC50 on a negative log10 scale, so that one unit is a factor of ten) in assay [1] was 7.92. In addition, in the assay on Vasopressin V2 (10 mg/kg orally), the Osmolality is 687 mOsm/kg and the “Urine Volume” value is recorded as 9.5 ml/4 hrs.

Turning to `Cc1ccccc1C(=O)Nc1ccc(C(=O)N2Cc3cccn3Cc3ccccc32)cc1` [Example 3, 2-Methyl-N-[4-(5H-pyrrolo[2,1-c][1,4]-benzodiazepin-10(11H)-ylcarbonyl)phenyl]benzamide], in assay [1], the pIC50 was 8.40. For the same compound, the Osmolality with Vasopressin V2 (1 mg/kg orally) was 515 ± 79 mOsm/kg; in the assay with Vasopressin V2 (3 mg/kg orally), 584 ± 56 mOsm/kg; with Vasopressin V2 (10 mg/kg orally), 567 ± 33 mOsm/kg. In addition, the “Urine Volume” value stood at 6.5 ± 1 ml/4 hrs in the assay on Vasopressin V2 (1 mg/kg orally), 9.6 ± 0.9 ml/4 hrs in the assay with Vasopressin V2 (3 mg/kg orally) and 15.8 ± 1 ml/4 hrs in the assay on Vasopressin V2 (10 mg/kg orally).

On to `O=C(Nc1ccc(C(=O)N2Cc3cccn3Cc3ccccc32)cc1)c1cc(Cl)ccc1Cl` [Example 4, N-[4-(5H-pyrrolo[2,1-c][1,4]benzodiazepin-10(11H)-ylcarbonyl)phenyl]-2,5-dichlorobenzamide], for which, in assay [1], the pIC50 is 7.85. For the same compound, the Osmolality in the assay on Vasopressin V2 (1 mg/kg orally) was determined as 1129 mOsm/kg; in the assay with Vasopressin V2 (3 mg/kg orally), 646 ± 115 mOsm/kg; with Vasopressin V2 (10 mg/kg orally), 571 mOsm/kg. Besides, the results for the “Urine Volume” value in the assay with Vasopressin V2 (1 mg/kg orally), in the assay on Vasopressin V2 (3 mg/kg orally) and in the assay with Vasopressin V2 (10 mg/kg orally) were 2 ml/4 hrs, 9.5 ± 1.2 ml/4 hrs and 16.9 ml/4 hrs, respectively.

On to `O=C(Nc1ccc(C(=O)N2Cc3cccn3Cc3ccccc32)cc1)c1ccc(Cl)cc1Cl` [Example 6, N-[4-(5H-pyrrolo[2,1-c][1,4]benzodiazepin-10(11H)-ylcarbonyl)phenyl]-2,4-dichlorobenzamide], for which the pIC50 in assay [1] is 8.52. Also, the Osmolality in the assay with Vasopressin V2 (1 mg/kg orally) is recorded as 970 mOsm/kg; with Vasopressin V2 (3 mg/kg orally), 519 ± 30 mOsm/kg; in the assay on Vasopressin V2 (10 mg/kg orally), 346 ± 25 mOsm/kg; in the assay on Vasopressin V2 (30 mg/kg orally), 616 ± 87 mOsm/kg. Moreover, the “Urine Volume” value in the assay with Vasopressin V2 (1 mg/kg orally) is 6 ml/4 hrs; in the assay on Vasopressin V2 (3 mg/kg orally), 15 ± 1.6 ml/4 hrs; with Vasopressin V2 (10 mg/kg orally) it was 20.4 ± 1.1 ml/4 hrs; in the assay on Vasopressin V2 (30 mg/kg orally) it was 17.9 ± 1.3 ml/4 hrs.

As for `O=C(Nc1ccc(C(=O)N2Cc3cccn3Cc3ccccc32)cc1)c1ccccc1Cl` [Example 7], the negative-log IC50 (pIC50) in assay [1] is 8.30. In the assay on Vasopressin V2 (10 mg/kg orally), the Osmolality is recorded as 780 mOsm/kg and the “Urine Volume” value was determined as 9 ml/4 hrs. In the assay with Vasopressin V2 (30 mg/kg orally), the Osmolality is listed as 815 mOsm/kg and the “Urine Volume” value worked out at 12.4 ml/4 hrs.

With `O=C(Nc1ccc(C(=O)N2Cc3cccn3-c3ccccc32)cc1)c1ccc(Cl)cc1Cl` [Example 17, N-[4-(pyrrolo(1,2-a]quinoxalin-5(4H)-ylcarbonyl)phenyl]-2,4-dichloro-benzamide], the pIC50 in assay [1] was 6.96. Moreover, in the assay with Vasopressin V2 (30 mg/kg orally), the Osmolality is listed as 1374 mOsm/kg and the “Urine Volume” value was 4.1 ml/4 hrs.

For the compound `CSc1ccccc1C(=O)Nc1ccc(C(=O)N2Cc3cccn3Cc3ccccc32)cc1` [Example 85, N-[4-(5H-Pyrrolo[2,1-c][1,4]benzodiazepin-10(11H)-ylcarbonyl)phenyl]-2-(methylthio)benzamide], in assay [1], the pIC50 is 7.89.

In the case of `Cc1ccccc1CC(=O)Nc1ccc(C(=O)N2Cc3cccn3Cc3ccccc32)cc1` [Example 93, N-[4(5H-Pyrrolo[2,1-c][1,4]benzodiazepin-10(11H)-ylcarbonyl)phenyl]-2-methylbenzeneacetamide], the pIC50 in assay [1] was 9.15.

For `Cc1ccccc1C(=O)Nc1ccc(C(=O)N2Cc3ccnn3Cc3ccccc32)cc1` [Example 210, N-[4-(4H-Pyrazolo[5,1-c][1,4]benzodiazepin-5(10H)-ylcarbonyl)phenyl]-2-methylbenzamide], the pIC50 in assay [1] is 7.80. Besides, in the assay with Vasopressin V2 (10 mg/kg orally), the Osmolality is 451 mOsm/kg and the “Urine Volume” value amounted to 15.2 ml/4 hrs.

`O=C(Nc1ccc(C(=O)N2Cc3cccn3Cc3ccccc32)cc1)c1c(Cl)cccc1Cl` [Example 469, N-[4-(5H-pyrrolo[2,1-c][1,4]benzodiazepin-10(11H)-ylcarbonyl)phenyl]-2,6-dichlorobenzamide]: in assay [1], the pIC50 is 7.82. Moreover, in the assay on Vasopressin V2 (10 mg/kg orally), the Osmolality came out at 548 mOsm/kg and the “Urine Volume” value stood at 11.3 ml/4 hrs.

Turning to `Cc1ccccc1C(=O)Nc1ccc(C(=O)N2Cc3cccn3Cc3ccccc32)c(Cl)c1` [Example 470], the pIC50 in assay [1] is 8.35. Also, in the assay on Vasopressin V2 (10 mg/kg orally), the Osmolality is 387 mOsm/kg and the “Urine Volume” value turned out to be 17 ml/4 hrs.

With `O=C(Nc1ccc(C(=O)N2Cc3cccn3Cc3ccccc32)c(Cl)c1)c1ccc(Cl)cc1Cl` [Example 471], the pIC50 in assay [1] is 8.08. In addition, in the assay with Vasopressin V2 (10 mg/kg orally), the Osmolality turned out to be 507 ± 38 mOsm/kg and the “Urine Volume” value is 14.1 ± 1.9 ml/4 hrs.

As for `Cc1ccccc1C(=O)Nc1c(C)cc(C(=O)N2Cc3cccn3Cc3ccccc32)cc1C` [Example 472], the inhibition (in general, the change of the read-out against control, counted positive when it falls) at 10 µM in assay [1] came out at 22%. In the assay with Vasopressin V2 (10 mg/kg orally), the Osmolality is reported as 1453 mOsm/kg and the “Urine Volume” value came out at 4.3 ml/4 hrs.

Consider `O=C(Nc1ccc(C(=O)N2Cc3cccn3Cc3ccccc32)cc1)c1cccc(C(F)(F)F)c1` [Example 474, N-[4-(5H-pyrrolo[2,1-c][1,4]benzodiazepin-10(11H)-ylcarbonyl)phenyl]-3-(trifluoromethyl)benzamide], for which the pIC50 in assay [1] was 7.42. Besides, in the assay with Vasopressin V2 (10 mg/kg orally), the Osmolality came to 619 mOsm/kg and the “Urine Volume” value is 11.5 ml/4 hrs.

Consider `O=C(Nc1ccc(C(=O)N2Cc3cccn3Cc3ccccc32)cc1)c1sccc1Cl` [Example 476, N-[4-(5H-pyrrolo[2,1-c][1,4]benzodiazepin-10(11H)-ylcarbonyl)phenyl]-3-chlorothiophene-2-carboxamide], for which the negative logarithm of the IC50 (pIC50) in assay [1] was 7.16. In the assay on Vasopressin V2 (10 mg/kg orally), the Osmolality came out at 1233 mOsm/kg and the “Urine Volume” value came to 5 ml/4 hrs.

As to `Cc1c(F)cccc1C(=O)Nc1ccc(C(=O)N2Cc3cccn3Cc3ccccc32)c(Cl)c1` [Example 481, N-[4-(5H-pyrrolo[2,1-c][1,4]benzodiazepin-10(11H)-ylcarbonyl)-3-chlorophenyl]-3-fluoro-2-methylbenzamide], the pIC50 in assay [1] is 8.47. In the assay on Vasopressin V2 (10 mg/kg orally), the Osmolality was 473 mOsm/kg and the “Urine Volume” value was found to be 17.2 ml/4 hrs.

On to `Cc1ccc(F)cc1C(=O)Nc1ccc(C(=O)N2Cc3cccn3Cc3ccccc32)c(Cl)c1` [Example 482, N-[4-(5H-pyrrolo[2,1-c][1,4]benzodiazepin-10(11H)-ylcarbony)-3-chlorophenyl]-5-fluoro-2-methylbenzamide], for which, in assay [1], the pIC50 is 8.64. Moreover, in the assay with Vasopressin V2 (10 mg/kg orally), the Osmolality stood at 372 ± 17 mOsm/kg and the “Urine Volume” value is 22 ± 0.9 ml/4 hrs.

With `Cc1cccc(NC(=O)c2ccc(C(=O)N3Cc4cccn4Cc4ccccc43)cc2)c1C` [Example 485, N-(2,3-Dimethylphenyl)-4-(5H-pyrrolo[2,1-c][1,4]benzodiazepin-10(11H)-ylcarbonyl)benzamide], the pIC50 in assay [1] is 7.89. Besides, in the assay with Vasopressin V2 (10 mg/kg orally), the Osmolality was 961 mOsm/kg and the “Urine Volume” value is 4 ml/4 hrs.

For the compound `COC(=O)c1ccc(C(=O)Nc2ccc(C(=O)N3Cc4cccn4Cc4ccccc43)cc2)cc1` [Example 489], the inhibition at 10 µM in assay [1] was 82%. In the assay with Vasopressin V2 (10 mg/kg orally), the Osmolality came out at 1194 mOsm/kg and the “Urine Volume” value was 6.1 ml/4 hrs.

Consider `CN(C)CN(C(=O)c1ccc(Cl)cc1Cl)c1ccc(C(=O)N2Cc3cccn3Cc3ccccc32)cc1` [Example 490, N-[(Dimethylamino)methyl]-N-[4-(5H-pyrrolo[2,1-c][1,4]benzodiazepin-10(11H)-ylcarbonyl)phenyl]-2,4-dichlorobenzamide], for which, in assay [1], the pIC50 is 8.30. In addition, in the assay on Vasopressin V2 (10 mg/kg orally), the Osmolality is given as 487 ± 38 mOsm/kg and the “Urine Volume” value came to 71.5 ± 1.6 ml/4 hrs.

As to `Cc1c(F)cccc1C(=O)Nc1ccc(C(=O)N2Cc3ccnn3Cc3ccccc32)cc1` [Example 517, N-[4-(4H-Pyrazolo[5,1-c][1,4]benzodiazepin-5(10H)-ylcarbonyl)phenyl]-3-fluoro-2-methylbenzamide], the pIC50 in assay [1] is 7.82. In addition, in the assay with Vasopressin V2 (10 mg/kg orally), the Osmolality was 411 mOsm/kg and the “Urine Volume” value stood at 14.7 ml/4 hrs.

Take `O=C(Nc1ccc(C(=O)N2Cc3ccc(CO)n3Cc3ccccc32)cc1)c1ccc(Cl)cc1Cl` [Example 581, 2,4-Dichloro-N-[4-[[3-(hydroxymethyl)-5H-pyrrolo[2,1-c][1,4]benzodiazepin-10(11H)-yl]carbonyl]phenyl]benzamide]: the negative logarithm of the IC50 (pIC50) in assay [1] was 8.28. For the same compound, in the assay with Vasopressin V2 (10 mg/kg orally), the Osmolality was found to be 941 ± 219 mOsm/kg and the “Urine Volume” value came to 4 ± 1.2 ml/4 hrs.

In the case of `O=C(Nc1ccc(C(=O)N2Cc3ccc(Cn4ccnc4)n3Cc3ccccc32)cc1)c1ccc(Cl)cc1Cl` [Example 582, 2,4-Dichloro-N-[4-[[3-(1H-imidazol-1-ylmethyl)-5H-pyrrolo[2,1-c][1,4]benzodiazepin-10(11H)-yl]carbonyl]phenyl]benzamide], in assay [1], the negative-log IC50 (pIC50) is 7.85. For the same compound, in the assay on Vasopressin V2 (10 mg/kg orally), the Osmolality was determined as 604 mOsm/kg and the “Urine Volume” value came to 9.5 ml/4 hrs.

In the case of `NC(=O)CNC(C(=O)Nc1ccc(C(=O)N2Cc3cccn3Cc3ccccc32)cc1)c1ccccc1` (stereo not drawn) [Example 585], in assay [1], the pIC50 is 7.08. Moreover, in the assay on Vasopressin V2 (10 mg/kg orally), the Osmolality is reported as 1483 mOsm/kg and the “Urine Volume” value is 3.3 ml/4 hrs.
